Common to all, as to type: physicochemical
Data set [1] in a line: Observation of the color of the crystals (Test Example 3). The following applies: crystals as obtained; hydrate. The text has this: Observation of the color of the crystals obtained in Examples 5 and 8 and Comparative Examples 4 and 5 was made.
The nature of data set [2]: Hue (H) in the Munsell color system of the crystals (Test Example 6). The following applies: reflection method, crystals as obtained, hydrate. From the text: The Munsell color system is the color system developed by Albert H. Munsell. In the system, color is defined in terms of three attributions, hue, brightness and chroma. Hue (H) represents kinds of colors and, in the Munsell color system, hue is defined by using a total of 10 hues including 5 fundamental hues of red (R), yellow (Y), green (G), blue (B) and purple (P) and 5 intermediate hues of yellow-red (YR), yellow-green (YG), blue-green (BG), blue-purple (BP) and red-purple (RP). In addition, each hue of the 10 hues is further defined by using uniform color scales so that the maximum classification is 10. Hue (H) can be measured by using a measuring device such as a colorimeter or a color-difference meter.
Hue (H) in the Munsell color system of the crystals of Examples 9, 11 to 14 was observed.
Colorimeter: Spectrophotometric colorimeter SE 2000, manufactured by NIPPON DENSHOKU […] CO., LTD.
(§1) Measurement method: Reflection method

Data set [3] can be described thus: Color difference of the crystal before and after storage, spectrophotometric colorimeter, reflection method (Test Examples 4 and 5). The note with it: Table 6, stored 2 weeks, air atmosphere, 40° C., relative humidity 75%, double polyethylene bag. As for the experimental part: As described herein, the color difference of the crystal is measured by reflection method using a spectrocolorimeter.
About 1 g of the test material was added in a storage bag, the storage bag being prepared by inserting one polyethylene bag into another polyethylene bag, each polyethylene bag having a thickness of 0.04 mm, each of the polyethylene bags was sealed, and the test material was stored for 2 weeks in conditions of air atmosphere at a temperature of 40° C. and a relative humidity of 75%. Color change of the crystal before and after the test was evaluated based on color difference.
as §1

Data set [4] is described as follows: Naked-eye observation of coloration after storage at 60° C. and 75% relative humidity. The following applies: stored 2 weeks, relative humidity 75%. Here is the method: Compound of Example 9 after it has been stored for 2 weeks under the condition including a temperature of 60° C. and a relative humidity of 75% is illustrated in FIG. 11.
The nature of data set [5]: Storage stability test under high temperature and high humidity conditions (Test Example 1). The note with it: about 0.2 g in glass vial, one week, 60° C., relative humidity 75%; compared to Comparative Example 1. Here is the method:
Storage stability test under high temperature and high humidity conditions
As a test material, the crystals obtained from Example 3 and Comparative Example 1 were selected.
Each of the test material (about 0.2 g) was added to a glass vial and stored for one week under the conditions including temperature of 60° C. and relative humidity of 75%.
State of the crystal of Example 3 before starting the test is illustrated in FIG. 4 and state of the crystal of Example 3 after finishing the test is illustrated in FIG. 5. Further, state of the crystal of Comparative Example 1 before starting the test is illustrated in FIG. 6 and state of the crystal of Comparative Example 1 after finishing the test is illustrated in FIG. 7.

Turning to `NC(=O)c1nc[nH]c1O` [Comparative Example 5, 5-hydroxy-1H-imidazole-4-carboxamide.3/4 hydrate], the Color of crystals result in data set [1] is “Blue”. Consider `NC(=O)c1nc[nH]c1O` [Example 14, 5-hydroxy-1H-imidazole-4-carboxamide.3/4 hydrate], for which, in data set [2], the “Hue (H)” value was 5.9Y.

Take `NC(=O)c1nc[nH]c1O` [Example 13, 5-hydroxy-1H-imidazole-4-carboxamide.3/4 hydrate]: in data set [2], the “Hue (H)” value is given as 5.9Y. Moreover, the “Color difference (ΔE)” value in data set [3] (hydrate) was found to be 5.1.

On to `NC(=O)c1nc[nH]c1O` [Comparative Example 4, 5-hydroxy-1H-imidazole-4-carboxamide.3/4 hydrate], for which, in data set [1], the Color of crystals result was “Blue”. In the case of `NC(=O)c1nc[nH]c1O` [Example 9, 5-hydroxy-1H-imidazole-4-carboxamide.3/4 hydrate], the “Hue (H)” value in data set [2] amounted to 3.1Y. The “Color difference (ΔE)” value in data set [3] (hydrate) amounted to 2.4. For the same compound, in data set [4], the “Coloration observed with a naked eye after storage” value is on record as “no coloration with blue color”. Regarding `NC(=O)c1nc[nH]c1O` [Example 5, 5-hydroxy-1H-imidazole-4-carboxamide.3/4 hydrate], the Color of crystals result in data set [1] was “Pale yellow”. As for `NC(=O)c1nc[nH]c1O` [Example 12, 5-hydroxy-1H-imidazole-4-carboxamide.3/4 hydrate], the “Hue (H)” value in data set [2] turned out to be 4.4Y. For `NC(=O)c1nc[nH]c1O` [Comparative Example 6, 5-hydroxy-1H-imidazole-4-carboxamide], the “Color difference (ΔE)” value in data set [3] came to 25.6. For `NC(=O)c1nc[nH]c1O` [Comparative Example 7, 5-hydroxy-1H-imidazole-4-carboxamide.3/4 hydrate, reference compound], in data set [3] (hydrate), the “Color difference (ΔE)” value turned out to be 8.8. As for `NC(=O)c1nc[nH]c1O.O` [Example 3, 5-hydroxy-1H-imidazole-4-carboxamide hydrate], the “Coloration and storage stability of the crystal” value in data set [5] is “clearly less coloration and better storage stability”.

Take `NC(=O)c1nc[nH]c1O` [Example 11, 5-hydroxy-1H-imidazole-4-carboxamide-3/4 hydrate]: the “Hue (H)” value in data set [2] is listed as 3.8Y.

Source of the values: US9567303B2, “Crystal of 5-hydroxy-1H-imidazole-4-carboxamide hydrate and pharmaceutical composition thereof” (FUJIFILM Corporation, priority 2011, dated 2017).
